# Data: PMC10714400, “Antimicrobial Peptide–Peptoid Hybrids with and without Membrane Disruption” (ACS Infectious Diseases, 2023)
# Where a SMILES comes first, the peptide text is derived from it. [ ]: non-standard residue; d: D form. Nleu = CC(C)CNCC(=O)O; Nlys = NCCCCNCC(=O)O
# Key:
# [1] = tested on: A. baumannii ATCC19606
# Summary of the method: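 MTT added (20–30 min, room temperature); MIC read by eye as lowest concentration inhibiting visible growth (yellow). Polymyxin B positive control from 16 μg/mL.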
# [2] = tested on: K. pneumoniae OXA-48; conditions: […] MH at pH 8.5
# Summary of the method: (§1)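 Using MTT as a visual viability dye, MICs were scored as the lowest concentration with no visible growth. Prior to staining, ~5 × 10^5 CFU per well grew in MH medium for ca. 18 h at 37 °C under static conditions.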
# [3] = tested on: P. aeruginosa PAO1
# Summary of the method: as §1
# [4] = tested on: PA14 2P4 (pmrB)
# Summary of the method: as §1
# [5] = tested on: PA14 4.18 (pmrB)
# Summary of the method: as §1
# [6] = tested on: S. aureus COL (MRSA)
# Summary of the method: as §1
# [7] = tested on: ZEM-1A (clinical MDR P. aeruginosa isolate)
# Summary of the method: as §1
# [8] = tested on: ZEM9A (clinical MDR P. aeruginosa isolate); conditions: […] MH at pH 8.5
# Summary of the method: as §1
# [9] = tested on: human red blood cells (hRBC); experiment: Minimum hemolytic concentration (MHC); assay type: cell-based
# Excerpt: We also measured minimal hemolysis concentrations (MHC) on human red blood cells by serial 2-fold dilution as an indication of toxicity against eukaryotic cells (Table 1).
# [10] = tested on: B. cenocepacia; conditions: 4 h, pH 8.5
# Summary of the method: as §1
# [11] = tested on: P. aeruginosa PA14; conditions: Table S3; […] MH at pH 8.5, 16-20 hours at 37 °C
# Summary of the method: as §1
# [12] = tested on: S. aureus Newman; conditions: Table S3; […] MH at pH 8.5
# Summary of the method: as §1
# [13] = tested on: S. epidermis; conditions: Table S3; […] MH at pH 8.5
# Summary of the method: as §1
# [14] = tested on: S. maltophilia; conditions: Table S3; […] MH at pH 8.5
# Summary of the method: as §1
# [15] = tested on: HEK293 cells; experiment: Cell viability assay by Alamar blue
# Summary of the method: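 Cells kept at 37 °C in 5% CO2 with 10% FBS plus penicillin/streptomycin, in RPMI-1640 for A549 and high-glucose DMEM for HEK293, then assessed for viability by Alamar blue; values are mean ± SD of three.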
# [16] = diluted MH ([…] MH) at pH 8.5 (Table 2 footnote b)
compound,measurement,setting,value
"CC(C)C[C@H](NC(=O)CN(CC(C)C)C(=O)[C@H](CC(C)C)NC(=O)CN(CCCCN)C(=O)[C@H](CC(C)C)NC(=O)CN(CC(C)C)C(=O)[C@H](CCCCN)NC(=O)CN(CC(C)C)C(=O)[C@H](CC(C)C)NC(=O)CN(CCCCN)C(=O)[C@@H](N)CCCCN)C(N)=O [EB9, KkLlKlLkLlL] (H-K[Nlys]L[Nleu]K[Nleu]L[Nlys]L[Nleu]L-NH2)","MIC A. baumannii ATCC19606, full MH at pH 7.4","[1]; ATCC19606, 4 h, pH 7.4",>32 ug/mL
same,"MIC A. baumannii ATCC19606, full MH at pH 8.5","[1]; ATCC19606, 4 h, pH 8.5",>32 ug/mL
same,MIC A. baumannii ATCC19606 […] 7.4,"[1]; Table S2, […] MH, pH 7.4",16 µg/mL
same,MIC A. baumannii ATCC19606 […] 8.5,"[1]; Table S2, […] MH, pH 8.5",8 µg/mL
same,MIC A. baumannii ATCC19606 Full MH 7.4,"[1]; Table S2, full MH, pH 7.4",> 32 µg/mL
same,MIC A. baumannii ATCC19606 Full MH 8.5,"[1]; Table S2, full MH, pH 8.5",> 32 µg/mL
same,"MIC K. pneumoniae OXA-48, […] MH at pH 8.5",[2]; CSV,32 ug/mL
same,MIC K. pneumoniae OXA-48,[2]; Table S3,32 µg/mL
same,Antibacterial activity as a function of NaCl concentration,"[3]; P. aeruginosa PAO1, […] MH at pH 8.5, up to 300 mM NaCl",strongly reduced
same,"MIC P. aeruginosa PAO1, full MH at pH 7.4","[3]; PAO1, 4 h, pH 7.4",32 ug/mL
same,MIC P. aeruginosa PAO1 […] 7.4,"[3]; Table S2, […] MH, pH 7.4",4 µg/mL
same,MIC P. aeruginosa PAO1 […] 8.5,"[3]; Table S2, […] MH, pH 8.5",2 µg/mL
same,MIC P. aeruginosa PAO1 Full MH 7.4,"[3]; Table S2, full MH, pH 7.4",32 µg/mL
same,MIC P. aeruginosa PAO1 Full MH 8.5,"[3]; Table S2, full MH, pH 8.5",> 32 µg/mL
same,"MIC P. aeruginosa PA14 2P4, […] MH at pH 8.5","[4]; CSV, […] MH at pH 8.5",4 ug/mL
same,MIC PA14 2P4 (pmrB),[4]; [16],4 µg/mL
same,"MIC P. aeruginosa PA14 4.18, […] MH at pH 8.5","[5]; CSV, […] MH at pH 8.5",6 ug/mL
same,MIC P. aeruginosa PA14 4.18,"[5]; Table S3, […] MH at pH 8.5",4 to 8 µg/mL
same,MIC PA14 4.18 (pmrB),[5]; [16],4 to 8 µg/mL
same,"MIC S. aureus COL (MRSA), full MH at pH 7.4","[6]; COL, 4 h, pH 7.4",>32 ug/mL
same,"MIC S. aureus COL (MRSA), full MH at pH 8.5","[6]; COL, 4 h, pH 8.5",>32 ug/mL
same,MIC S. aureus COL (MRSA) […] 7.4,"[6]; Table S2, […] MH, pH 7.4",32 µg/mL
same,MIC S. aureus COL (MRSA) Full MH 7.4,"[6]; Table S2, full MH, pH 7.4",> 32 µg/mL
same,MIC S. aureus COL (MRSA) Full MH 8.5,"[6]; Table S2, full MH, pH 8.5",> 32 µg/mL
same,"MIC P. aeruginosa ZEM-1A, […] MH at pH 8.5","[7]; CSV, […] MH at pH 8.5",3 ug/mL
same,MIC P. aeruginosa ZEM-1A,"[7]; Table S3, […] MH at pH 8.5",2 to 4 µg/mL
same,MIC ZEM-1A,[7]; [16],2 to 4 µg/mL
same,"MIC P. aeruginosa ZEM9A, […] MH at pH 8.5",[8]; CSV,2 ug/mL
same,MIC P. aeruginosa ZEM9A,[8]; Table S3,2 µg/mL
same,Hemolysis,[9],none of them showed any measurable hemolysis
same,MHC,[9],>2000 µg/mL
same,MIC B. cenocepacia,[10],>32 µg/mL
same,MIC P. aeruginosa PA14,[11],2 µg/mL
same,MIC S. aureus Newman,[12],4 µg/mL
same,MIC S. epidermis,[13],2 µg/mL
same,MIC S. maltophilia,[14],8 µg/mL
same,"Toxicity against HEK293 cells, no effect detected up to",[15],> 200 µM
same,IC50,"[15]; read-out: Toxicity on HEK293 cells, CSV",> 200 µM
